The values below come from US9802899B2, “Heterocyclic compounds as pesticides” (BAYER CROPSCIENCE AG, priority 2012, dated 2017).

In general, log P refers to the decadic logarithm of the partition coefficient of the neutral form, usually between octanol and water. Lower therefore signals a more hydrophilic compound. A word on the chromatographic logP: it is lipophilicity estimated from chromatographic retention. Higher therefore signals higher lipophilicity.

A short description of series [1]: Determination of the log P values by HPLC (formic acid method). In kind it is physicochemical. The settings on record: printed as (neutral).
Another series relates to Musca domestica. In words: Musca domestica test (MUSCDO). As to conditions: adult flies, after 2 days. It counts as in vivo. Here is the method:
Musca domestica Test (MUSCDO)
(§1) Solvent: dimethyl sulphoxide
To produce a suitable preparation of active compound, 10 mg of active compound are mixed with 0.5 ml of dimethyl sulphoxide, and the concentrate is diluted with water to the desired concentration.
Vessels containing a sponge treated with the active compound formulation of the desired concentration are populated with adult Musca domestica.
After 2 days, the kill in % is determined. 100% means that all of the flies have been killed; 0% means that none of the flies have been killed.

A short description of series [2]: Determination of the log P values by HPLC (formic acid method). In kind it is physicochemical. As to conditions: reversed-phase column (C 18), acidic range (pH 3.4), 55° C.; for chromatographic logP: reversed-phase HPLC column (C 18). How it is done:
1) Description of Method for Determination of the Log P Values (Formic Acid Method)
Eluents for determination in the acidic range (pH 3.4):
Eluent A: acetonitrile+1 ml of formic acid/liter. Eluent B: water+0.9 ml of formic acid/liter.
The lambda max values were determined in the maxima of the chromatographic signals using the UV spectra from 200 nm to 400 nm.

Another series has as its system Ctenocephalides felis. Put plainly: Ctenocephalides felis oral test (CTECFE). It counts as in vivo. The settings on record: application rate 100 ppm in citrated cattle blood; adult fleas; after 2 days. Here is the method:
Ctenocephalides felis—Oral Test (CTECFE)
Solvent: 1 part by weight of dimethyl sulphoxide
To produce a suitable preparation of active compound, 10 mg of active compound are mixed with 0.5 ml of dimethyl sulphoxide. A portion of the concentrate is diluted with citrated cattle blood, and the desired concentration is prepared.
About 20 unfed adult fleas (Ctenocephalides felis) are placed into a chamber which is closed at the top and bottom with gauze. A metal cylinder whose bottom end is closed with a parafilm is placed onto the chamber. The cylinder contains the blood/active compound preparation, which can be imbibed by the fleas through the Parafilm membrane.
After 2 days, the kill in % is determined 100% means that all fleas have been killed; 0% means that none of the fleas have been killed.

In a further series the test system is Haemonchus contortus. Put plainly: Haemonchus contortus test (HAEMCO). In kind it is in vivo. As to conditions: application rate 4 ppm; larvae; after 5 days. How it is done: Haemonchus contortus Test (HAEMCO)
as §1
To produce a suitable preparation of active compound, 10 mg of active compound are mixed with 0.5 ml of dimethyl sulphoxide, and the concentrate is diluted with Ringer solution to the desired concentration.
Vessels containing the active compound preparation of the desired concentration are populated with about 40 larvae of the red stomach worm (Haemonchus contortus).
After 5 days, the kill in % is determined 100% means that all of the larvae have been killed; 0% means that none of the larvae have been killed.

A further series has as its system Phaedon cochleariae. Put plainly: Phaedon cochleariae spray test (PHAECO). It counts as in vivo. The settings on record: foliar, 168 h, application rate 500 g/ha, larvae on Chinese cabbage leaf discs, after 7 days, read-out: efficacy.
Series [3] relates to Boophilus microplus. Put plainly: Boophilus microplus test (DIP). It counts as in vivo. The settings on record: application rate 100 ppm, after 7 days by laying of fertile eggs, 100% = no fertile eggs. How it is done:
Boophilus microplus Test (DIP)
Test animals: adult engorged Boophilus microplus females of the SP-resistant Parkhurst strain
as §1
10 mg of active compound are dissolved in 0.5 ml of dimethyl sulphoxide. For the purpose of preparing a suitable formulation, the active compound solution is diluted with water to the concentration desired in each case.
This active compound preparation is pipetted into tubes. 8-10 ticks are transferred into a further tube with holes. The tube is immersed into the active compound formulation, and all ticks are completely wetted. After the liquid has run out, the ticks are transferred onto filter discs in plastic dishes and stored in a climate-controlled room.
The activity is assessed after 7 days by laying of fertile eggs. Eggs whose fertility is not visible from the outside are stored in a climate-controlled cabinet until the larvae hatch. An efficacy of 100% means that none of the ticks has laid any fertile eggs.

The subject of the next series is Cooperia curticei. In words: Cooperia curticei test (COOPCU). As to conditions: Cooperia curticei, 120 h, read-out: efficacy (kill). It counts as in vivo.
Series [4] concerns Boophilus microplus. Put plainly: Boophilus microplus test (BOOPMI injection). It counts as in vivo. The settings on record: application rate 20 μg/animal; injection into the abdomen; after 7 days by laying of fertile eggs. Here is the method: Boophilus microplus Test (BOOPMI Injection)
as §1
To produce a suitable preparation of active compound, 10 mg of active compound are mixed with 0.5 ml of solvent, and the concentrate is diluted with solvent to the desired concentration.
The active compound solution is injected into the abdomen (Boophilus microplus), and the animals are transferred into dishes and stored in a climate-controlled room.
The activity is assessed after 7 days by laying of fertile eggs. Eggs whose fertility is not visible from the outside are stored in a climate-controlled cabinet until the larvae hatch after about 42 days. An efficacy of 100% means that none of the ticks has laid any fertile eggs; 0% means that all eggs are fertile.

The subject of the next series is Meloidogyne incognita. In words: Meloidogyne incognita test (MELGIN). It counts as in vivo. The settings on record: Meloidogyne incognita, 336 h; application rate 20 ppm; lettuce in sand; after 14 days; read-out: nematicidal effect (formation of galls). How it is done: Meloidogyne incognita Test (MELGIN)
Solvent: 125.0 parts by weight of acetone
To prepare a suitable active compound preparation, 1 part by weight of active compound is mixed with the stated amount of solvent and the concentrate is diluted with water to the desired concentration.
Vessels are filled with sand, active compound solution, an egg/larvae suspension of the root-knot nematode (Meloidogyne incognita) and lettuce seeds. The lettuce seeds germinate and the plants develop. On the roots, galls are formed.
After 14 days, the nematicidal effect in % is determined by the formation of galls. 100% means that no galls have been found; 0% means that the number of galls on the treated plants corresponds to the untreated control.

Turning to `O=C(Nc1ccn(-c2ccccc2Br)n1)c1c(F)cccc1C(F)(F)F` [Compound I-1-335], in [1], the “log P (neutral)” value was determined as 3.02.

With `O=C(Nc1ccn(-c2ncccc2Cl)n1)c1cccnc1C(F)(F)F` [Compound I-1-562], in the series on Musca domestica (application rate 100 ppm), the “efficacy (kill)” value was 90%. In [2], the “log P” value was determined as 1.98.

For `O=C(Nc1cnn(-c2ccccc2Cl)n1)c1ccccc1C(F)(F)F` [Compound I-2-1, N-[2-(2-Chlorophenyl)-2H-1,2,3-triazol-4-yl]-2-(trifluoromethyl)benzamide], the “efficacy (kill)” value with Ctenocephalides felis was found to be 90%; with Haemonchus contortus, 80%. Moreover, the pest or weed control at 500 g/ha in the series with Phaedon cochleariae was 100%. This molecule also came in with a chromatographic logP in series [2] of 3.02. Further, in the series on Boophilus microplus [3], the efficacy is listed as 100%. Also, the pest or weed control at 4 ppm in the series with Cooperia curticei was 100%.

As to `O=C(Nc1ccn(-c2ccccc2Br)n1)c1ncccc1Cl` [Compound I-1-55], the efficacy in the series on Boophilus microplus [4] worked out at 80%. In addition, the lipophilicity (log P) in series [2] stood at 2.76.

Take `O=C(Nc1ccn(-c2c(F)cccc2F)n1)c1nccnc1C(F)(F)F` [Compound I-1-99]: the “efficacy (kill)” value turned out to be 80% in the series on Ctenocephalides felis and 90% with Musca domestica (application rate 20 ppm). In series [2], the “log P” value is on record as 2.45. The same molecule returned an efficacy with Boophilus microplus [3] of 100%.

For `O=C(Nc1ccn(-c2c(F)cccc2F)n1)c1ncccc1C(F)(F)F` [Compound I-1-91, N-[1-(2,6-Difluorophenyl)-1H-pyrazol-3-yl]-3-(trifluoromethyl)pyridine-2-carboxamide], the results for the “efficacy (kill)” value in the series with Ctenocephalides felis and in the series with Musca domestica (application rate 20 ppm) were 80% and 85%, respectively. Moreover, in the series on Phaedon cochleariae, the pest or weed control at 500 g/ha came out at 100%. The pest or weed control at 20 ppm in the series on Meloidogyne incognita worked out at 100%. The chromatographic logP in series [2] worked out at 2.22. In the series on Boophilus microplus [3], this molecule returned an efficacy of 90%. Besides, the pest or weed control at 100 ppm with Cooperia curticei (application rate 100 ppm, nematode larvae, after 5 days) came out at 90%.
